Series [1] addresses T1, peptide transporter Pep T1 (Homo sapiens, UniProt P46059).
T1 sequence (P46059 1-708): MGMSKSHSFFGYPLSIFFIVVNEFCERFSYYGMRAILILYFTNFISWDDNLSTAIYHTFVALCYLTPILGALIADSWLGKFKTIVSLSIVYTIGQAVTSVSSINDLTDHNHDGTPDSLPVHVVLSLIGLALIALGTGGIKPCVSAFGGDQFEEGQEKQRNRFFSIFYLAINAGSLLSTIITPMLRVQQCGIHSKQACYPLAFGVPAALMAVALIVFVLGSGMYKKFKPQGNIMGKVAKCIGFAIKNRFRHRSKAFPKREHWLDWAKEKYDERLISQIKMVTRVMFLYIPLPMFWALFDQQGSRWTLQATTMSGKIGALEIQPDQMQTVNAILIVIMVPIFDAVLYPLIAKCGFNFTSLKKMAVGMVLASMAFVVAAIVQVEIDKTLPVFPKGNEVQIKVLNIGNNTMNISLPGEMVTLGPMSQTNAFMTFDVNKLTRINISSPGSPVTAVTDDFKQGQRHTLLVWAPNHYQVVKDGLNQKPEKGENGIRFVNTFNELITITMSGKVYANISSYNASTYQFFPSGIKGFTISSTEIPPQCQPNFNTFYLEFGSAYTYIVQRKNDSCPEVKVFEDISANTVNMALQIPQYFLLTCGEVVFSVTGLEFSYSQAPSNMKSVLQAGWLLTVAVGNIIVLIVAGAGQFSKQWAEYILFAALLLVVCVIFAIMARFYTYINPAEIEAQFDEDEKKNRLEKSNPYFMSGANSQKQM
Kind of series: Transport by the peptide transporter Pep T1. The class given is in vitro ADME. The conditions noted are these: in comparison with L-threo-isoleucyl thiazolidide.

Series [2] relates to circulating blood glucose. Kind of series: Circulating blood glucose after oral administration with synchronous glucose tolerance test. As to conditions: for Glucose concentration in % L-allo-Ile-thiazolidide-treated: oral 20 μM, within 60 min, % based on normoglycaemic values (control 100). The class given is in vivo, Wistar rat.
Another series addresses dipeptidyl peptidase IV (Homo sapiens, UniProt P27487). Kind of series: Action of effectors on the DP IV-catalysed hydrolysis of H-Gly-Pro-pNA. Format: biochemical. The conditions noted are these: 0.4 mM H-Gly-Pro-pNA, 30° C., pH 7.6, ionic strength 0.125; for remaining activity at 10 µM / % Residual activity of DP IV in the presence of 10 μM effector: 10 μM effector; for remaining activity at 10 µM: read-out: % Residual activity of DP IV in the presence of 10 μM effector; for Ki: read-out: Effector affinity to DP IV: Ki.

Series [3] is described as follows: Testing the solubility of salts of Ile-Thia in distilled water. The class given is physicochemical. As to conditions: H2Odist. Here is the method: Testing the Solubility of Salts of Ile-Thia
Addition of 100 μl H2Odist.

Counter-ions that a name gives are not always drawn.

Chain of dipeptidyl peptidase IV (P27487 whole entry, species assumed): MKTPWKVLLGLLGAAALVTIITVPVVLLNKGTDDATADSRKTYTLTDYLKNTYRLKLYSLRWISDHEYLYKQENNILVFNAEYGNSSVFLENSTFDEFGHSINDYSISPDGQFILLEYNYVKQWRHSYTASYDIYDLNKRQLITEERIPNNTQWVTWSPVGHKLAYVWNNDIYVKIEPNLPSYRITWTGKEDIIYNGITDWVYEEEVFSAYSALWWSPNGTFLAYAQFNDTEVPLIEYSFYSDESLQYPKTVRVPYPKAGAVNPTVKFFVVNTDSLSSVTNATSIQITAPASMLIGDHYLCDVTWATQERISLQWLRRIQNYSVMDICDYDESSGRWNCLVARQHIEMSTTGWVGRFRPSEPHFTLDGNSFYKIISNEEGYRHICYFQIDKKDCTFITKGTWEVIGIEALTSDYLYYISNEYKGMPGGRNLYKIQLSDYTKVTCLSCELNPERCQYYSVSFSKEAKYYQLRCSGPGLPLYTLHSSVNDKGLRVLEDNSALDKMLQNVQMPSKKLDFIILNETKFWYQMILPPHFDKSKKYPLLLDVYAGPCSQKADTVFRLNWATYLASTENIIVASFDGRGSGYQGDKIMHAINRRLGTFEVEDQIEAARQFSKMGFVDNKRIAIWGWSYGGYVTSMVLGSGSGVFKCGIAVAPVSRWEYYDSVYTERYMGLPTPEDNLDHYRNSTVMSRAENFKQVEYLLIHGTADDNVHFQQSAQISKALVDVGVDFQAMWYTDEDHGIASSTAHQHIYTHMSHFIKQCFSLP

Take `CC[C@@H](C)[C@H](N)C(=O)N1CCSC1` [H-L-allo-Ile-thiazolidide, L-allo-isoleucyl thiazolidide]: the “Improvement in transport by the peptide transporter Pep T1” value in series [1] was “approximately five-fold”. Also, the “Glucose concentration in % L-allo-Ile-thiazolidide-treated” value is recorded as 73% in series [2] (Wistar rat (diabetes 2b-model, obese)) and 82% in series [2] (Wistar rat, normal). In addition, in series [2] (in comparison with L-threo-isoleucyl thiazolidide), the “Degree of action with respect to glucose modulation” value was “approximately the same degree of action”.

The term Ki denotes a measure of affinity in units of concentration, obtained from inhibition or displacement. As for `NC(CC(=O)NO)C(=O)N1CCSC1` (centres unmarked) [H-Asp(NHOH)-thiazolidide], on dipeptidyl peptidase IV, the remaining activity at 10 µM worked out at 54.5% and the Ki is 8.8 µM.

Regarding `NC(Cc1c[nH]cn1)C(=O)N1CCCC1` (centres unmarked) [H-His-pyrrolidide], on dipeptidyl peptidase IV, the remaining activity at 10 µM was 49.7% and the inhibition constant (Ki) came to 3.5 µM.

On to `C[C@H]1O[C@H](O[C@H]2[C@H](O)[C@@H](O)[C@@H](O[C@H]3[C@H](O)[C@@H](O)C(O)O[C@@H]3CO)O[C@@H]2CO)[C@H](O)[C@@H](O)[C@@H]1N[C@H]1C=C(CO)[C@@H](O)[C@H](O)[C@H]1O` (some centres unmarked) [acarbose, reference compound], for which, at dipeptidyl peptidase IV, the remaining activity at 10 µM was 100% and the Ki was over 1000 µM.

`CN(C)C(=N)N=C(N)N` [metformin, reference compound]: at dipeptidyl peptidase IV, the remaining activity at 10 µM worked out at 100% and the Ki was over 1000 µM.

`COc1ccc(Cl)cc1C(=O)NCCc1ccc(S(=O)(=O)NC(=O)NC2CCCCC2)cc1` [glibenclamide, reference compound]: on dipeptidyl peptidase IV, the remaining activity at 10 µM worked out at 100% and the Ki is over 1000 µM.

Consider `NC(=O)CC(N)C(=O)N1CCCC1` (centres unmarked) [H-Asn-pyrrolidide], for which, at dipeptidyl peptidase IV, the remaining activity at 10 µM was determined as 83.1% and the Ki turned out to be 12 µM.

With `CC(C)C(N)C(=O)N1CCSC1` (centres unmarked) [H-Val-thiazolidide], at dipeptidyl peptidase IV, the remaining activity at 10 µM was 13.6% and the Ki came to 0.27 µM.

For `NC(CCC(=O)O)C(=O)N1CCSC1` (centres unmarked) [H-Glu-thiazolidide], at dipeptidyl peptidase IV, the remaining activity at 10 µM was determined as 25% and the inhibition constant Ki amounted to 0.61 µM.

In the case of `NC(CC(=O)O)C(=O)N1CCSC1` (centres unmarked) [H-Asp-thiazolidide], on dipeptidyl peptidase IV, the remaining activity at 10 µM was 45.6% and the Ki came out at 2.9 µM.

Turning to `NC(CCC(=O)NO)C(=O)N1CCCC1` (centres unmarked) [H-Glu(NHOH)-pyrrolidide], on dipeptidyl peptidase IV, the “% Residual activity of DP IV in the presence of 10 μM effector” value came to 44.9% and the inhibitory constant (Ki) was 2.8 µM.

Take `CC[C@H](C)[C@H](N)C(=O)N1CCSC1` [L-threo-IT*F, L-threo-isoleucyl thiazolidide fumarate]: the “Wettability and decomposition in water” value in series [3] is “scarcely wettable and does not decompose”. The “Solubility: concentration at complete dissolution” value in series [3] (visual) is on record as 2.63%.

Turning to `NC(=O)CC(N)C(=O)N1CCSC1` (centres unmarked) [H-Asn-thiazolidide], on dipeptidyl peptidase IV, the remaining activity at 10 µM came to 47.2% and the inhibition constant (Ki) turned out to be 3.5 µM.

As to `CC[C@H](C)[C@H](N)C(=O)N1CC1` [H-Ile-azididide], on dipeptidyl peptidase IV, the “% Residual activity of DP IV in the presence of 10 μM effector” value is 43.8% and the inhibition constant Ki is 3.1 µM.

For the molecule `NC(CC(=O)O)C(=O)N1CCCC1` (centres unmarked) [H-Asp-pyrrolidide], on dipeptidyl peptidase IV, the remaining activity at 10 µM is 81.6% and the Ki came to 14 µM.

On to `NC(CC(=O)NO)C(=O)N1CCCC1` (centres unmarked) [H-Asp(NHOH)-pyrrolidide], for which, on dipeptidyl peptidase IV, the remaining activity at 10 µM came out at 88.2% and the Ki was 13 µM.

In the case of `NC(CCC(=O)NO)C(=O)N1CCSC1` (centres unmarked) [H-Glu(NHOH)-thiazolidide], at dipeptidyl peptidase IV, the remaining activity at 10 µM stood at 36.5% and the inhibition constant Ki stood at 1.7 µM.

On to `NC(Cc1c[nH]cn1)C(=O)N1CCSC1` (centres unmarked) [H-His-thiazolidide], for which, at dipeptidyl peptidase IV, the remaining activity at 10 µM is 35.2% and the Ki is 1.8 µM.

The record behind these values is US20080182798A1, “Novel effectors of dipeptidyl peptidase IV” (priority 1998, published 2008).
